According to article PMC4647837, “Biocompatible fluorescent supramolecular nanofibrous hydrogel for long-term cell tracking and tumor imaging applications” (Scientific Reports, 2015):

Experiments:
[1] = tested on: living cells; settings: cited from earlier work
Description: Long-term cell tracking have recently attracted intensive research interest, as it can provide meritorious information on cell therapy and its processes, as well as on studying the mechanism of cancer pathogenesis, invasion and metastasis. Consequently, the application of the fluorescent nanofibrous hydrogel in long-term cell tracking was investigated. The HeLa cancer cells were incubated with the nanofiber suspension for 4 h at 37 °C. Subsequently, the nanofiber-labeled cells were subcultured for designated time intervals, followed by imaging with CLSM.

[2] = Gelation after GSH addition, vial inversion method; format: physicochemical
Description: Therefore, rheological measurement of the hydrogel was carried out.
5.0 mg of Rhodamine-GFFYE-CS-EE and 3 equiv. of Na2CO3 (in order to adjust the pH value of the final solution) were dissolved in 1.0 mL of PBS buffer (pH 7.4), and then 4 equiv. of reduced glutathione (GSH) was added to the solution. After about 20 minutes at room temperature, the self-supporting hydrogel was formed. Moreover, after dilution of the hydrogel with aqueous solution, the fluorescent nanofiber suspension was obtained.

[3] = tested on: HeLa cancer cells; assay: Cellular uptake and imaging by CLSM; format: cell-based, Human; settings: Rhodamine B concentration 100 μM, 2 h, FBS-free DMEM, excitation 543 nm
Description: The HeLa cancer cells were cultured in confocal imaging chambers (LAB-TEK, Chambered Coverglass System) at 37 °C. After 80% confluence, the medium was removed and the adherent cells were washed twice with 1 × PBS buffer. The nanofiber and precursor in FBS-free DMEM medium at the Rhodamine B concentration of 100 μM were then added to the chamber, respectively. After incubation for 2 h, the cells were washed with 1 × PBS buffer and then imaged with confocal laser scanning microscope (CLSM, Zeiss LSM 410, Jena, Germany). The fluorescent signal from the Rhodamine B was collected upon excitation at 543 nm with a 560 nm longpass barrier filter. The HepG2 cancer cellular imaging was performed following the same experimental procedures.

[4] = tested on: 4T1 tumor-bearing mice; assay: Fluorescence imaging in tissue slices (CLSM); format: in vivo, BALB/c mice; settings: intravenous, 0.1 mL of 100 μM, 0.5 h post-injection; vessels immunostained with PECAM-1
Description: At 0.5 h post administration of 0.1 mL of fluorescent nanofiber and precursor (100 μM), respectively, the mice were sacrificed. Subsequently, the tumor tissues were dissected, fixed in 4% paraformaldehyde for 2 h, incubated in 20% sucrose/PBS overnight and embedded in Optimal Cutting Temperature (OCT) compound (Tissue-Tek). Sections (6 μm) were immunostained with monoclonal antibody against platelet/endothelial cell adhesion molecule 1 (PECAM-1; PharMingen). Alexa Fluor 633-conjugated antirabbit antibody was used as secondary antibody (Molecular Probes). The cell nuclei were stained with DAPI. The tumor slices were imaged by CLSM with excitation wavelength at 405 nm, 543 nm, and 633 nm for DAPI, Rhodamine B, and PECAM-1, respectively. Furthermore, at 24 h post administration of nanofiber and precursor, respectively, the slices of various tissues including tumor, intestine, liver, spleen, kidney, and heart were obtained following the aforementioned experimental procedures. After that, the cell nuclei in the tissue slices were stained with DAPI, which was followed by imaging with CLSM.

[5] = tested on: 4T1 tumor-bearing mice; assay: Ex vivo fluorescence imaging of tumor and organs (Maestro system); settings: intravenous, 0.1 mL of 100 μM, 24 h post-injection; excitation 523 nm
Description: Eight-week-old BALB/c mice were purchase from the Laboratory Animal Center of the Academy of Military Medical Sciences (Beijing, China). To establish tumor-bearing mouse model, a 4T1 cancer cell suspension containing 5 × 10^5 cells (50 μL) was injected subcutaneously into the mice at the right axillae.
4T1 tumor-bearing mice were intravenously administrated with 0.1 mL of fluorescent nanofiber or precursor (100 μM). At 24 h post-injection, the mice were sacrificed, the tissues including liver, kidney, spleen, intestine, heart, lung, stomach, skin, muscle and tumor were excised and imaged using the Maestro system (CRi, Inc., Woburn, USA). Light with a central wavelength of 523 nm was selected as the excitation source. Spectral imaging from 560 to 900 nm with 10 nm steps was carried out with an exposure time of 150 ms.

time of gelation process after addition of GSH ([2]; 37 °C) | time to hydrogel formation after addition of GSH ([2]; room temperature) [h] | Compound | number of passages over which living cells can be traced [1] | cellular uptake / spatial distribution in cells [3] | red fluorescence in tumor slices (tumor accumulation) [4] | ex vivo fluorescence signal in tumor [5]
– | – | CC(=O)Oc1ccc2c(c1)Oc1cc(OC(C)=O)ccc1C21OC(=O)c2cc(CCl)ccc21 [CellTrackerTM Green CMFDA] | no more than 3 passages | – | – | –
around 30 min | 2 | Rhodamine-GFFYE-CS-EE [precursor] | – | internalized in the cell cytoplasm | negligible red fluorescence | far weaker
